Patent US5563176A (priority 1994, dated 1996)
Where two headings read alike, the source gives them in different places.

Key:
[1] = test system: L1210 DDPt (cis-plat) cells; experiment: sensitivity of mdr lines, L1210 DDPt; type: cell-based; settings: Mus musculus
[2] = test system: human lung adenocarcinoma MV522; experiment: animal or person; settings: MV522, ip, read-out: life span
[3] = test system: CFU-GM; experiment: colony formation zone size, CFU-GM; settings: for Zone Size: CFU-GM
[4] = test system: KB C-1 (gp170+) cells; experiment: sensitivity of mdr lines, KB C-1; type: cell-based; settings: KBC-1
[5] = test system: MCF7 ADR (GSH-transferase) cells; experiment: cells; type: cell-based; settings: Homo sapiens, NCI/ADR-RES, read-out: Sensitivity of mdr lines
[6] = test system: MDA-231, breast; experiment: cells; type: cell-based; settings: Homo sapiens, MDA-MB-231, 2 h
[7] = test system: L1210 cells; experiment: L1210 in vivo, increased life span
Procedure: In collaboration, the in vivo effects of dehydroilludin M was again studied. Initially the compound was studied against L1210 cells. […] The dehydroilludin M was then administered as a 24 hour infusion (5.0 mg/kg); the ILS was 11%. After we became aware of the presence of the energy-dependent uptake in human myelocytic cells, dehydroilludin M was screened for in vivo efficacy against a syngeneic mouse AML model using C1498 cells and a single bolus of […], 2.5 mg/kg IP, produced an ILS of 35%.

[8] = test system: MV522; experiment: cells; type: cell-based; settings: Homo sapiens, MV522, 48 h, read-out: 48 hour IC50
[9] = test system: SL-2, murine (thymic); experiment: inhibition of thymidine incorporation after two hour exposure, SL-2; type: cell-based; settings: Mus musculus, 2 h; Table 1; SL-2, two hour exposure
Procedure: (§1) To assess cytotoxic effects, various concentrations of illudins were added to cultures of cells for 48 hours, then cell growth/viability was determined by trypan blue exclusion. As an alternative to 48 hour continuous exposure studies, cells were plated in liquid culture in 96 well plates, exposed to various concentrations of illudins for 2 hours, pulsed with [^3 H]-thymidine for one to two hours and harvested onto glass filters. The filter papers were added to vials containing scintillation fluid and residual radioactivity determined in a beta (scintillation) counter.
(§2) two hour exposure to the toxins (N - 3).

[10] = test system: L1210; experiment: zone of inhibition / colony formation, L1210
[11] = test system: MCF7-wt parent (Breast) cells; experiment: sensitivity of mdr lines, MCF7-wt parent; type: cell-based; settings: Homo sapiens; MCF7-wt Parent; read-out: Sensitivity of mdr lines
[12] = test system: 8402, T-cell; experiment: inhibition of thymidine incorporation after two hour exposure, 8402; type: cell-based; settings: 2 h, Table 1, 8402, two hour exposure
Procedure: as §1, §2

[13] = test system: HL-60 cells; experiment: cells; type: cell-based, human
[14] = test system: MV522 cells; experiment: cells; type: cell-based, human; settings: Homo sapiens, MV522, 2 h, read-out: Two hour IC50
[15] = tolerability in mice; settings: for MTD at 672 h: mouse, in vivo
[16] = test system: HL-60 parent cells; experiment: sensitivity of mdr lines, HL-60 parent; type: cell-based; settings: Homo sapiens
[17] = test system: HL60 cells (myeloid); experiment: cells; type: cell-based, human; settings: Homo sapiens, HL-60, 2 h
[18] = test system: 8392 cells; experiment: cells; type: cell-based; settings: 48 h, read-out: 48 hour IC50
[19] = test system: L1210 BCNU cells; experiment: sensitivity of mdr lines, L1210 BCNU; type: cell-based; settings: Mus musculus
[20] = test system: HL-60 ADR (gp150+) cells; experiment: sensitivity of mdr lines, HL-60 ADR; type: cell-based; settings: Homo sapiens, HL60/ADR
[21] = test system: 547, ovarian; experiment: inhibition of thymidine incorporation after two hour exposure, 547; type: cell-based; settings: 2 h; Table 1; 547, two hour exposure
Procedure: as §1, §2

[22] = test system: KB VBL (gp170+) cells; experiment: sensitivity of mdr lines, KB VBL; type: cell-based
[23] = test system: HL60/MRI cells (human myeloid leukemia tumor cells)
[24] = test system: MDA-231 parent (Breast) cells; experiment: sensitivity of mdr lines, MDA-231 parent; type: cell-based; settings: Homo sapiens, MDA-MB-231
[25] = test system: SL-2 leukemia/lymphoma cells; experiment: SL-2 syngeneic model, increased life span; type: in vivo, murine
Procedure: The efficacy of dehydroilludin M was then screened in a syngeneic model using murine SL-2 cells. SL-2 leukemia/lymphoma cells are injected subcutaneously and metastasized to lymph nodes, spleen, and lungs, and drug efficacy in this model is determined by increased life span (ILS). The SL-2 cells were administered at 2.5 million cells per animal and treatment was delayed. for 7 days until the tumors were palpable. Ibis is a relatively stringent test .against established tumors and contrasts to general drug screens in the SL-2 model which normally use only 0.5 million cells and starting drug treatment at 3 days. […] When administered IV at 0.03 mg/kg, twice a week, the ILS increased to 38%.

[26] = test system: Molt-4 (human T-cell leukemia) xenograft; experiment: Molt-4 xenograft in athymic Balb/c nu/nu mice; type: in vivo; settings: 30 μg/kg, nude mice; FIG. 5
[27] = test system: L1210 parent cells; experiment: sensitivity of mdr lines, L1210 parent; type: cell-based; settings: Mus musculus
[28] = test system: human lung adenocarcinoma MV522; settings: in vivo

For `CC1=C2C(=O)C(C)(C)C=C2C(=O)[C@](C)(O)C12CC2` [Dehydroilludin M], the IC50 [1] was 119 ± 39 nM, the response vs control in vivo at 30 mg/kg [2] was 163 ± 6% and the “Zone Size” value ([3]; dilution 1/25) was 200. The “Zone Size” value ([3]; dilution 1/125) was 100, the “Zone Size” value ([3]; dilution 1/125 (repeat)) was 50 and the “Zone Size” value ([3]; dilution 1/625) was 0. The “effect on CFU-gm cells” value ([3]; at concentrations inhibiting AML colony formation) was “no effect”, the IC50 [4] was 80 ± 18 nM and the IC50 [5] was 68 ± 15 nM. The IC50 [6] was 112 ± 17 nM, the ILS ([7]; 2.5 mg/kg IP daily for 5 days) was 9% and the ILS ([7]; 24 hour infusion (5.0 mg/kg)) was 11%. The IC50 [8] was 313 ± 23 nM, the IC50 [9] was 5.24 µM and the “Zone Size” value ([10]; L1210, dilution 1/25) was 400. For the same compound, the “Zone Size” value ([10]; L1210, dilution 1/125) was 200, the “Zone Size” value ([10]; L1210, dilution 1/125 (repeat)) was 300 and the “Zone Size” value ([10]; L1210, dilution 1/625) was 100. The IC50 [11] was 92 ± 15 nM, the IC50 [12] was > 38 µM and the “toxicity to HL-60 cells” value [13] was “less toxic”. The IC50 [14] was 1830 nM, the toxicity to mice ([15]; 60,000 μg/kg IP twice a week) was “nontoxic” and the MTD at 672 h ([15]; ip) was 60 mg/kg. For the same compound, the MTD at 672 h ([15]; iv) was 1 mg/kg, the IC50 [16] was 163 ± 11 nM and the IC50 [17] was 246 ± 19 nM. The IC50 ([17]; read-out: Two hour IC50) was 377 ± 81 nM, the IC50 [18] was 269 ± 100 nM and the IC50 [19] was 100 ± 31 nM. For the same compound, the IC50 [20] was 191 ± 44 nM, the IC50 [21] was > 38 µM and the IC50 [22] was 78 ± 19 nM. For the same compound, the total tumor weight ([23]; 1 mg/kg IV, day 11) was 114 ± 55 Mg, the total tumor weight ([23]; 1 mg/kg IV, day 18) was 883 ± 311 Mg and the total tumor weight ([23]; 1 mg/kg IV, day 25) was 2274 ± 992 Mg. The total tumor weight ([23]; 1 mg/kg IV, day 32) was 6025 ± 1772 Mg, the total tumor weight ([23]; 1 mg/kg IV, day 40) was 11507 ± 3707 Mg and the total tumor weight ([23]; 3 mg/kg IV, day 11) was 101 ± 40 Mg. The total tumor weight ([23]; 3 mg/kg IV, day 18) was 911 ± 309 Mg, the total tumor weight ([23]; 3 mg/kg IV, day 25) was 2127 ± 1092 Mg and the total tumor weight ([23]; 3 mg/kg IV, day 32) was 2854 ± 1260 Mg. For the same compound, the total tumor weight ([23]; 3 mg/kg IV, day 40) was 4784 ± 2303 Mg, the tumor inhibition ([23]; IP twice a week, FIG. 6) was “dose related tumor inhibition” and the “inhibition of tumor growth” value ([23]; IV twice a week, dose dependent) was “effective at inhibiting tumor growth”. For the same compound, the “adverse effects (food or water intake, body weight)” value ([23]; highest amount of either drug, IV) was “did not display any evidence of adverse effect”, the IC50 [24] was 54 ± 7 nM and the ILS ([25]; 0.03 mg/kg IV twice a week) was 38%. For the same compound, the ILS ([25]; 30 mg/kg IP twice a week) was 5%, the ILS ([25]; 60 mg/kg IP twice a week) was 18% and the “complete regression of tumors” value [26] was “three of five tumors underwent complete regression”. The IC50 [27] was 62 ± 8 nM and the “efficacy in this model” value [28] was “markedly increased the lifespan”.
